In patent publication US7163939 one finds ring closure, isolated yield data, which are given here for 9 compounds.

Where two headings read alike, the source gives them in different places.

For this series the following is noted: rcm bond.

Where the note is “from C=CCCOc1nc(NC(=O)Nc2cc(Cl)cnc2OCC=C)cnc1C#N, 15-membered ring, Grubbs II (15 mol%), CH2Cl2, 2.75 mM, 40.0 °C, 16.0 h”, `N#Cc1ncc2nc1OCCC=CCOc1ncc(Cl)cc1NC(=O)N2` displayed a ring closure, isolated yield of 36%.
As for “2-oxo-18-[3-(tetrahydro-2H-pyran-2-yloxy)propyl]-2,3,11,14-tetrahydro-1H,10H-8,4-epiazeno-9,15,1,3,6-benzodioxatriazacycloheptadecine-7-carbonitrile”, the ring closure, isolated yield (15-membered ring) came out at 37%.
The compound `CC1C=CCCOc2nc(cnc2C#N)NC(=O)Nc2cc(Cl)ccc2O1` (stereo not drawn) displayed a ring closure, isolated yield (from C=CCCOc1nc(NC(=O)Nc2cc(Cl)ccc2OC(C)C=C)cnc1C#N, 15-membered ring, Grubbs II (10 mol%), CH2Cl2, 1.97 mM, 25.0 °C, 36.0 h) of 63%.
In the case of `O=C1Nc2cncc(n2)OCCC=CCOc2ccc(Cl)cc2N1`, under “from C=CCCOc1cncc(NC(=O)Nc2cc(Cl)ccc2OCC=C)n1, 15-membered ring, Grubbs II (15 mol%), CH2Cl2, 2.4 mM, 50.0 °C, 16.0 h”, the ring closure, isolated yield worked out at 40%.
Take `Cc1cc(Cl)c2c(c1)NC(=O)Nc1cnc(C#N)c(n1)OCCC=CCO2`: the ring closure, isolated yield (from C=CCCOc1nc(NC(=O)Nc2cc(C)cc(Br)c2OCC=C)cnc1C#N, 15-membered ring, Grubbs II (10 mol%), CH2Cl2, 2.11 mM, 40.0 °C, 16.0 h) turned out to be 72%.
As for `N#Cc1ncc2nc1OCCC=CCOc1c(F)cc(Cl)cc1NC(=O)N2`, the ring closure, isolated yield (from C=CCCOc1nc(NC(=O)Nc2cc(Br)cc(F)c2OCC=C)cnc1C#N, 15-membered ring, Grubbs II (10 mol%), CH2Cl2, 1.47 mM, 25.0 °C, 6.0 h) was determined as 64%.
With `N#Cc1ncc2nc1OCC=CCOc1ccc(Cl)cc1NC(=O)N2`, the ring closure, isolated yield (from C=CCOc1ccc(Cl)cc1NC(=O)Nc1cnc(C#N)c(OCC=C)n1, 14-membered ring, Grubbs II (15 mol%), CH2Cl2, 1.8 mM, 40.0 °C, 16.0 h) was 54%.
`N#Cc1ncc2nc1OCCC=CCOc1cc(N)c(Cl)cc1NC(=O)N2` came in with a ring closure, isolated yield (from C=CCCOc1nc(NC(=O)Nc2cc(Cl)c(N)cc2OCC=C)cnc1C#N, 15-membered ring, Grubbs II (10 mol%), DMSO workup, CH2Cl2, 1.96 mM, 25.0 °C, 16.0 h) of 77%.
In the case of `C[Si](C)(C)CCOCOc1cc2c(cc1Cl)NC(=O)Nc1cnc(C#N)c(n1)OCCC=CCO2`, the ring closure, isolated yield (from C=CCCOc1nc(NC(=O)Nc2cc(Cl)c(OCOCC[Si](C)(C)C)cc2OCC=C)cnc1C#N, 15-membered ring, Grubbs II (10 mol%), DMSO workup, CH2Cl2, 1.5 mM, 25.0 °C, 16.0 h) turned out to be 92%.
